Active and inactive are the calls of the source. The calls are words filed in the database; no cut-off is given here.
How the values were obtained:
[1] = tested on: Brain; test: Drug penetration in mouse brain; format: ADME, tissue-based; conditions: in vivo
[2] = Dissociation constant, pKa of compound; format: physicochemical
[3] = Permeability in human Caco-2 cells; format: ADME, cell-based; conditions: read-out: permeability
[4] = Inhibition of BCR-KIT (unknown origin) expressed in mouse BaF3 cells assessed as inhibition of IL3 dependent cell proliferation incubated for 3 days by ATPlite 1step Luminescence Assay reagent based assay; conditions: Homo sapiens, BaF3, 72 h
[5] = Octanol to water partition coefficient, logD of the compound; format: physicochemical
[6] = Inhibition of BCR-CSF1R (unknown origin) expressed in mouse BaF3 cells assessed as inhibition of BCR-CSF1R dependent cell proliferation incubated for 3 days by ATPlite 1step Luminescence Assay reagent based assay; conditions: Homo sapiens, BaF3, 72 h
[7] = Inhibition of BCR-KIT (unknown origin) expressed in mouse BaF3 cells assessed as inhibition of BCR-KIT dependent cell proliferation incubated for 3 days by ATPlite 1step Luminescence Assay reagent based assay; conditions: Homo sapiens, BaF3, 72 h
[8] = Inhibition of BCR-CSF1R (unknown origin) expressed in mouse BaF3 cells assessed as inhibition of IL3-dependent cell proliferation incubated for 3 days by ATPlite 1step Luminescence Assay reagent based assay; conditions: Homo sapiens, BaF3, 72 h
[9] = molecular target: T1, Macrophage colony-stimulating factor 1 receptor (Mus musculus) (UniProt P09581); test: In vivo inhibition of CSF1R in wildtype mouse assessed as microglial elimination in thalamus at 1200 ppm administered as rodent chow for 10 weeks by […] based confocal microscopic analysis; format: functional; conditions: route po
T1 sequence (whole entry): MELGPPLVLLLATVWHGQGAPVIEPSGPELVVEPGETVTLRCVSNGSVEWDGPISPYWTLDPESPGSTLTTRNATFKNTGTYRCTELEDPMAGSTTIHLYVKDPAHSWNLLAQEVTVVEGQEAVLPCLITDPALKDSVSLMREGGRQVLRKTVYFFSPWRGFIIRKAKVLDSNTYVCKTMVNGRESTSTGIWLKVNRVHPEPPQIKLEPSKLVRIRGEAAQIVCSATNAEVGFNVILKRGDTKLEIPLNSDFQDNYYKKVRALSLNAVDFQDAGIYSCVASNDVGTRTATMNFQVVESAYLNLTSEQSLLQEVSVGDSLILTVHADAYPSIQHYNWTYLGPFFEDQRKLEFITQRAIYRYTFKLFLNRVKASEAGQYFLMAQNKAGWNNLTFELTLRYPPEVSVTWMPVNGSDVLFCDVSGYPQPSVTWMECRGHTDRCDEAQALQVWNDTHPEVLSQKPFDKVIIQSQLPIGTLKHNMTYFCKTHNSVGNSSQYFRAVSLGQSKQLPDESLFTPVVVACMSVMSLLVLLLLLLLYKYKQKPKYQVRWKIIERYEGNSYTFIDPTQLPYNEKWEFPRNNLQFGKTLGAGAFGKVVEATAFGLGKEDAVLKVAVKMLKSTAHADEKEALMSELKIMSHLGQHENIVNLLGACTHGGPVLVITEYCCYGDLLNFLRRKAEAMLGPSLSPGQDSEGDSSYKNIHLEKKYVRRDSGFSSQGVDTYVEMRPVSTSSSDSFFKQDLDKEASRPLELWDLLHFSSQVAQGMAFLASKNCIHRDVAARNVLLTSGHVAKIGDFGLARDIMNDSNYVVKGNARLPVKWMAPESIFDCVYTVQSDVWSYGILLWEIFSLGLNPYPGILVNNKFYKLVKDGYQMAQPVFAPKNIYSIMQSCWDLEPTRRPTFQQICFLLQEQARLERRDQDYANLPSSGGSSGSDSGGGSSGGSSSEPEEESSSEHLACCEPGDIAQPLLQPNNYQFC

[10] = Effect on Nos1ap gene expression in wildtype mouse hippocampus assessed as percent change in Reads Per kilo base per Million mapped reads at 1200 ppm administered as rodent chow starting from 1.5 months and measured after 7 months by RNA-Seq analysis (reference value: 90.677 to 108.278 %); format: functional; conditions: route po, time 5.5 months, 4015 h
[11] = molecular target: Serine/threonine-protein kinase MARK1 (Homo sapiens, UniProt Q9P0L2); test: Inhibition of MARK1 (unknown origin)
[12] = tested on: Mus musculus; test: Antialzheimer activity in 5XFAD mouse assessed as number of GFAP positive cell per FOV in retro spinal cortex at 1200 ppm administered as rodent chow for 10 to 24 weeks by immunolabelling based confocal microscopic analysis (reference value: 217 to 477); format: functional; conditions: route po, time 10-24 weeks
[13] = molecular target: Aurora kinase A (Homo sapiens, UniProt O14965); test: Inhibition of AURKA (unknown origin)
[14] = molecular target: Ephrin type-B receptor 2 (Homo sapiens, UniProt P29323); test: Inhibition of EPHB2 (unknown origin)
[15] = Prevention of Dync1i1 gene downregulation in 5XFAD mouse hippocampus assessed as percent change in Reads Per kilo base per Million mapped reads at 1200 ppm administered as rodent chow starting from 1.5 months and measured after 7 months by RNA-Seq analysis (reference value: 65.184 to 88.242 %); format: functional; conditions: route po, time 5.5 months, 4015 h
[16] = tested on: Mus musculus; test: Antialzheimer activity in 5XFAD mouse assessed as A11 protein intensity at 1200 ppm administered as rodent chow starting from 1.5 months and measured after 7 months by immunoblot analysis (reference value: 54.431 to 142.272 a.u.); format: functional; conditions: route po, time 5.5 months, 4015 h
[17] = Half-life in mouse at 1.92 mg/kg, iv administered as single dose; format: ADME, organism-based; conditions: in vivo
[18] = tested on: Mus musculus; test: Antialzheimer activity in 5XFAD mouse assessed as number of plaques in subiculum at 1200 ppm administered as rodent chow starting from 1.5 months and measured after 7 months by immunolabeling based confocal microscopic analysis (reference value: 139 to 212); format: functional; conditions: route po, time 5.5 months, 4015 h
[19] = Effect on Csf1r RPKM gene expression in wild type mouse hippocampus at 1200 ppm administered as rodent chow starting from 1.5 months and measured after 7 months by RNA-Seq analysis (reference value: 18.240 to 20.004 RPKM); format: functional; conditions: route po, time 5.5 months, 4015 h
[20] = molecular target: Calcium/calmodulin-dependent protein kinase type II subunit alpha (Homo sapiens, UniProt Q9UQM7); test: Inhibition of CAMK2A (unknown origin)
[21] = AUC (0 to infinity) in female rat at 1.13 mg/kg, iv administered as single dose; format: ADME, organism-based; conditions: in vivo
[22] = molecular target: T1, Macrophage colony-stimulating factor 1 receptor (Mus musculus); test: In vivo inhibition of CSF1R in wildtype mouse assessed as microglial elimination in cortex at 1200 ppm administered as rodent chow for 10 weeks by […] based confocal microscopic analysis relative to control; format: functional; parameters: scale not given: the % may be the effect or the level left; conditions: route po
[23] = molecular target: RAC-alpha serine/threonine-protein kinase (Homo sapiens, UniProt P31749); test: Inhibition of AKT1 (unknown origin)
[24] = molecular target: T1, Macrophage colony-stimulating factor 1 receptor (Mus musculus); test: In vivo inhibition of CSF1R in wildtype mouse assessed as number of GFAP positive cell per FOV in somatosensory cortex at 1200 ppm administered as rodent chow for 10 to 24 weeks by immunolabelling based confocal microscopic analysis (reference value: 4 to 34); format: functional; conditions: route po, time 10-24 weeks
[25] = molecular target: Cyclin-dependent kinase 1/cyclin B1 (Homo sapiens, UniProt P06493); test: Inhibition of CDK1/CyclinB (unknown origin); format: protein-complex assay
[26] = molecular target: Cyclin-dependent kinase 5/CDK5 activator 1 (Homo sapiens, UniProt Q00535); test: Inhibition of CDK5_p25 (unknown origin); format: protein-complex assay
Sequence of Cyclin-dependent kinase 5/CDK5 activator 1 (Q00535 whole entry): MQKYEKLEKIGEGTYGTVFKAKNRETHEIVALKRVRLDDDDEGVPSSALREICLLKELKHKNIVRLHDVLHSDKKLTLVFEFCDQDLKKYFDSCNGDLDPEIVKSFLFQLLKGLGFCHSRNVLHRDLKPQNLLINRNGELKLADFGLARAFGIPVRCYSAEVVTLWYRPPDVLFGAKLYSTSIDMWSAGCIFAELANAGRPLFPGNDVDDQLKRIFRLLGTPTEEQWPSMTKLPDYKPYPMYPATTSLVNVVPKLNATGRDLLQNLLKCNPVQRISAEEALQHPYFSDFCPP
Sequence of Cyclin-dependent kinase 5/CDK5 activator 1 (Q15078 whole entry, further chain): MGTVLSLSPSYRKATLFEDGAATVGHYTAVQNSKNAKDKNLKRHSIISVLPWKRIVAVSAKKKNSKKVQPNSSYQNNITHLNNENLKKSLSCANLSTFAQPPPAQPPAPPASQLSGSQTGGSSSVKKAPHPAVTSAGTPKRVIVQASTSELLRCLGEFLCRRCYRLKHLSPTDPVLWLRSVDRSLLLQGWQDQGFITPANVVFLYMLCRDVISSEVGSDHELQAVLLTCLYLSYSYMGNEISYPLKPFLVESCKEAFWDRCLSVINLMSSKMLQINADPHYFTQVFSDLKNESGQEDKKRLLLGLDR

Sequence of Ephrin type-B receptor 2 (P29323 whole entry): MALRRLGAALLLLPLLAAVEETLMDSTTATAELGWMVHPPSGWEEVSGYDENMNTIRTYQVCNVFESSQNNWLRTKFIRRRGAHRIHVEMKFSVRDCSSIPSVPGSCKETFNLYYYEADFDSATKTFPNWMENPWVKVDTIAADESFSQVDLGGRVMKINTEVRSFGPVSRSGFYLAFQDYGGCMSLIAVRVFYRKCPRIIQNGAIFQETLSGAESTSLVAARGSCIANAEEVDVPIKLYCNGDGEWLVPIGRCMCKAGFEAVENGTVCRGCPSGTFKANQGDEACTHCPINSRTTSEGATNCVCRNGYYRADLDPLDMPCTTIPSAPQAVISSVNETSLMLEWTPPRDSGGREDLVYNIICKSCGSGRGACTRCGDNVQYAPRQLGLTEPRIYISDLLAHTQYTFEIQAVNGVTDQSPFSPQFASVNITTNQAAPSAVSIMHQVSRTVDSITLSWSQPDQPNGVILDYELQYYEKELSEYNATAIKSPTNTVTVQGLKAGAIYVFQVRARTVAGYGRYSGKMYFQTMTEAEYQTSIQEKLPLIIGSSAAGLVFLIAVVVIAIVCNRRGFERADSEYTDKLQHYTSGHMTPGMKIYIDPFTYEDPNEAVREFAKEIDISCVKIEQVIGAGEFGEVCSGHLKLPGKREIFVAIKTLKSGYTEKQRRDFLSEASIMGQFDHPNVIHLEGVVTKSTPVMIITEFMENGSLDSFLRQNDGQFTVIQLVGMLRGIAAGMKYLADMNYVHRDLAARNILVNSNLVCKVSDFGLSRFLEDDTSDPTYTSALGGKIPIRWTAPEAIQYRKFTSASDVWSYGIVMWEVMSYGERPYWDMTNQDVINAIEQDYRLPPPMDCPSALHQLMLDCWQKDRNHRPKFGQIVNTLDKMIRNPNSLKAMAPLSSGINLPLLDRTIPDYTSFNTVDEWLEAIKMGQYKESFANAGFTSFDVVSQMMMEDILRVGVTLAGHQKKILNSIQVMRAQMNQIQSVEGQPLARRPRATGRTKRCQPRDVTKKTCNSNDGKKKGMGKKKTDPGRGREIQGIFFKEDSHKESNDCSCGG
Sequence of Calcium/calmodulin-dependent protein kinase type II subunit alpha (Q9UQM7 whole entry): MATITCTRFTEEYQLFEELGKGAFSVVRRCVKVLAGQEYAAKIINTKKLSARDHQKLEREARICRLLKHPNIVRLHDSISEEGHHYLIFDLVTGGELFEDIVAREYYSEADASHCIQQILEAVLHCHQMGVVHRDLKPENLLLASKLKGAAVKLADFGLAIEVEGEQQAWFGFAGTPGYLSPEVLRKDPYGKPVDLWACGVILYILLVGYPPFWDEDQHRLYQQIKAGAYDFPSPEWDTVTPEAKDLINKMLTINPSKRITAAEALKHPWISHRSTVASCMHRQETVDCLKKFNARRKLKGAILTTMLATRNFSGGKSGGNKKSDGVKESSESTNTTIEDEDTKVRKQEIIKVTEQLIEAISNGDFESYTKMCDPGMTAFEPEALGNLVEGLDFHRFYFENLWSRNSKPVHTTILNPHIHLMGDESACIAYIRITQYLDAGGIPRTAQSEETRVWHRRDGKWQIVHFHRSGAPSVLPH
Sequence of RAC-alpha serine/threonine-protein kinase (P31749 whole entry): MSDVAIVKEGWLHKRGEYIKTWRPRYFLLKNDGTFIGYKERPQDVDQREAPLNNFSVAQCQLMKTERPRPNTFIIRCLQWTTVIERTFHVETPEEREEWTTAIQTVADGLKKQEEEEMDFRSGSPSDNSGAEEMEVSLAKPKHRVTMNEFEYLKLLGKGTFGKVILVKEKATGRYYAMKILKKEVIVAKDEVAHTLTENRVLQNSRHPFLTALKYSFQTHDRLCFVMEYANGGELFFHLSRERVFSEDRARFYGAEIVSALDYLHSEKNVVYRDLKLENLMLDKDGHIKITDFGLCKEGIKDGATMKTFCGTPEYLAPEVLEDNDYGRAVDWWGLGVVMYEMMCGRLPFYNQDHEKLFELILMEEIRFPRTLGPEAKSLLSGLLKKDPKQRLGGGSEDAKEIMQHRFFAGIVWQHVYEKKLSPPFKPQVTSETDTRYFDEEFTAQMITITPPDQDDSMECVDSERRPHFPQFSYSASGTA
Sequence of Cyclin-dependent kinase 1/cyclin B1 (P06493 whole entry): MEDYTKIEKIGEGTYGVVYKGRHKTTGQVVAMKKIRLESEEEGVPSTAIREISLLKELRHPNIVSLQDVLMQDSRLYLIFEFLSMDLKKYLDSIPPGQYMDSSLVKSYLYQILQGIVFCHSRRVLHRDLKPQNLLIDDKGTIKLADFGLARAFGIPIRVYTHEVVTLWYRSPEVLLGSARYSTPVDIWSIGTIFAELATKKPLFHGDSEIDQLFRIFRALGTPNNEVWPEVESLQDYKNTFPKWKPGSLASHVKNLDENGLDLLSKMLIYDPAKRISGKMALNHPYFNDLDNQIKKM
Sequence of Cyclin-dependent kinase 1/cyclin B1 (P14635 whole entry, further chain): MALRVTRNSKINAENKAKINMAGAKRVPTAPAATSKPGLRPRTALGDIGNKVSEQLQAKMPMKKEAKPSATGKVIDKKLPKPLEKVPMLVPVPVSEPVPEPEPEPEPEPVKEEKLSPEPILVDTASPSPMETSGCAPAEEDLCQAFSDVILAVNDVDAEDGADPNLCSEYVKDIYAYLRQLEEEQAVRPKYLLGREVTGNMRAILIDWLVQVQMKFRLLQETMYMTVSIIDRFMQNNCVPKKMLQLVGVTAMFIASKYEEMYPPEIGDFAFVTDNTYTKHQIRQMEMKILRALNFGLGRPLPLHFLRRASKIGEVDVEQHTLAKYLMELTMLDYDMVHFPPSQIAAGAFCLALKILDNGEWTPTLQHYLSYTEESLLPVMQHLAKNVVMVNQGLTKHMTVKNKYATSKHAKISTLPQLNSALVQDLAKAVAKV
Sequence of Aurora kinase A (O14965 whole entry): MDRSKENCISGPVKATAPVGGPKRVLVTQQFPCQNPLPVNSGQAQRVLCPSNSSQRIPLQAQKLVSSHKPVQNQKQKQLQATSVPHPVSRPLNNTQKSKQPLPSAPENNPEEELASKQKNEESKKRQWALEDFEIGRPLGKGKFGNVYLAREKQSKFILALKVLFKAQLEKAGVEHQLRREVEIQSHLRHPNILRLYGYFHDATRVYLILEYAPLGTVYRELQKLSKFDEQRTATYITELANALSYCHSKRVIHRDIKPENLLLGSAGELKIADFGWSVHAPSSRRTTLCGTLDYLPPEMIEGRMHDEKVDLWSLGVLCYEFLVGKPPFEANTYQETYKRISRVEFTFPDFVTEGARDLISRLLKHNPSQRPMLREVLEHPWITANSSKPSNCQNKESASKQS
Sequence of Serine/threonine-protein kinase MARK1 (Q9P0L2 whole entry): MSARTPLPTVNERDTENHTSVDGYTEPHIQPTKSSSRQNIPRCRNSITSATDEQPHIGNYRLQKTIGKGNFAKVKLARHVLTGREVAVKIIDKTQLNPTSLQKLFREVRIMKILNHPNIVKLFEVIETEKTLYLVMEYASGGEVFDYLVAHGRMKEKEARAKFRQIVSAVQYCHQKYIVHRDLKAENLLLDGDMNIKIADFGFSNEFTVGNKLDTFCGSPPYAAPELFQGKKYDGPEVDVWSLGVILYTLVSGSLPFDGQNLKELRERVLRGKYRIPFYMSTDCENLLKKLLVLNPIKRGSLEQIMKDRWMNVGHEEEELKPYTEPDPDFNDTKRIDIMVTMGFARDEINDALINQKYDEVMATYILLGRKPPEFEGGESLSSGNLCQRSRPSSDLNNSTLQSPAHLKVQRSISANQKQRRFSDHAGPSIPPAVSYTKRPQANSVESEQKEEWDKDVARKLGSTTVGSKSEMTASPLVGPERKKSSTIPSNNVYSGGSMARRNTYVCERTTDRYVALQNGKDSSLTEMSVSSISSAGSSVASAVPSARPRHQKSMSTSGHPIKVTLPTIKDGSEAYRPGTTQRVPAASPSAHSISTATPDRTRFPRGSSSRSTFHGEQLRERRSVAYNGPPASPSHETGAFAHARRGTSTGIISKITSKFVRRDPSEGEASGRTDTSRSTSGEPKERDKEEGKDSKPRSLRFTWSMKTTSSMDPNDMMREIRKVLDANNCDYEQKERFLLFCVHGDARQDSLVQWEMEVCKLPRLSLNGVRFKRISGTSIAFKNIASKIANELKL

FC(F)(F)c1ccc(CNc2ccc(Cc3c[nH]c4ncc(Cl)cc34)cn2)cn1 [PEXIDARTINIB]
Drug uptake [1]: ~ 5% | pKa [2]: 5.2 | Papp [3]: 1.4 ×10⁻⁶ cm/s | IC50 [4]: > 10000 nM | logD [5]: 3.35 | IC50 [6]: 9 nM | IC50 [7]: 110 nM | IC50 [8]: > 10000 nM

COc1ncc(F)cc1CNc1ccc(Cc2c[nH]c3ncc(C)cc23)c(F)n1 [PLX-5622]
inhibition [9]: inactive | Activity [10]: 78.494% | IC50 [11]: > 1000 nM | Drug uptake [1]: ~ 20% | Activity [12]: 92 | IC50 [13]: > 1000 nM | IC50 [14]: > 1000 nM | pKa [2]: 4.14 | Activity [15]: 89.818% | Flu intensity [16]: 21.124 a.u. | half-life [17]: 2.6 h | Papp [3]: 12.2 ×10⁻⁶ cm/s | Activity [18]: 97 | Activity [19]: 0.238 RPKM | IC50 [4]: > 10000 nM | logD [5]: 3.92 | IC50 [20]: > 1000 nM | IC50 [6]: 17 nM | AUC(0-inf) [21]: 5110 ng·h/mL | Activity [22]: > 99% | IC50 [7]: 2700 nM | IC50 [23]: > 1000 nM | IC50 [8]: > 10000 nM | Activity [24]: 5 | IC50 [25]: > 1000 nM | IC50 [26]: > 1000 nM

From ChEMBL document CHEMBL5649170, “Sustained microglial depletion with CSF1R inhibitor impairs parenchymal plaque development in an Alzheimer's disease model” (Nat Commun, 2019)
